Results reported in patent US20220257775A1 (GLYCOMIMETICS, INC., priority 2019, published 2022).

target: T1, recombinant human E-selectin/CD63E Fc Chimera (Homo sapiens, UniProt P16581); assay: E-Selectin Activity - Analysis by SPR; assay type: binding; settings: Biacore X100, E-selectin captured on anti-human IgG (Fc) chip
T1 construct: Fc (human IgG Fc fusion partner); purchased R & D systems
Description: Surface Plasmon Resonance (SPR) measurements were performed on a Biacore X100 instrument (GE Healthcare). A CM5 sensor chip (GE Healthcare) was used for the interaction between E-selectin and GMI compound. Anti-human IgG (Fc) antibody (GE Healthcare) was immobilized onto the chip by amine coupling according to the manufacturer's instructions. In brief, after a 7-min injection (flow rate of 5 μl/min) of 1:1 mixture of N-ethyl-N′-(3-dimethylaminopropyl) carbodiimide hydrochloride and N-hydroxysuccinimide, anti-human IgG (Fc) antibody (25 μg/ml in 10 mM sodium acetate buffer, pH 5.0) was injected using a 6-min injection at 5 μl/min. Remaining activated groups were blocked by injecting 1 M ethanolamine/HCl, pH 8.5. The recombinant human E-selectin/CD63E Fc Chimera (50 μg/ml) (R & D systems) was injected into the experimental cell until 6000-7000 RU was captured onto the antibody surface. No recombinant human E-selectin/CD63E was injected into the control cell. Increasing concentrations of GMI compound samples were injected at 30 μl/min into both flow cells and all sensorgrams were recorded against the control. Regeneration of the anti-human IgG (Fc) surface was achieved by injecting 3M magnesium chloride, followed by 50 mM sodium hydroxide. Data were analyzed using Biacore X100 evaluation/BIA evaluation 4.1.1 software (GE Healthcare) and Graphad prism 6 software.

T1 sequence (P16581 with tags, fused parts or gaps limits assumed): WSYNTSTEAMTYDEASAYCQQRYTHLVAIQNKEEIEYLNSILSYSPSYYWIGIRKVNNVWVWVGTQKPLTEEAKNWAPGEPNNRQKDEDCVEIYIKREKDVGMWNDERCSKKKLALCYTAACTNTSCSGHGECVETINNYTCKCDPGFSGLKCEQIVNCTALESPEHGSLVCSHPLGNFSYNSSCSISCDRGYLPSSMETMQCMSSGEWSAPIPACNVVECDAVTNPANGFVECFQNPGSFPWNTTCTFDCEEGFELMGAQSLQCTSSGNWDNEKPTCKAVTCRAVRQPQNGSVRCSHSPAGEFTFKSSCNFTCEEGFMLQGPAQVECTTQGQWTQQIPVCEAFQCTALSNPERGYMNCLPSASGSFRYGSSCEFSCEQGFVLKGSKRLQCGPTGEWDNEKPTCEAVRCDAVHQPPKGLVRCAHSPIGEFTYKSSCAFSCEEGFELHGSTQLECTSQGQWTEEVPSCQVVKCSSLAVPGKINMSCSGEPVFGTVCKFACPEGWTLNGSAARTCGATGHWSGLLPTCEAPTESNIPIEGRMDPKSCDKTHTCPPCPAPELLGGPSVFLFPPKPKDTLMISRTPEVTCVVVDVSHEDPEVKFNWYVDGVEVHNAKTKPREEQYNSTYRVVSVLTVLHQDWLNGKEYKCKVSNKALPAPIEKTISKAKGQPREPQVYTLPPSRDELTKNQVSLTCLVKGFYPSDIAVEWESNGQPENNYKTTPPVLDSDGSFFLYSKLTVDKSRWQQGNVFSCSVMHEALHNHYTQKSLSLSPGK

Compound | Kd
CC[C@H]1C[C@@H](C(=O)NCCNC(=O)CCOCCOCCC(=O)NCCNC(=O)[C@@H]2C[C@H](CC)[C@@H](O[C@@H]3O[C@@H](C)[C@@H](O)[C@@H](O)[C@@H]3O)[C@H](O[C@@H]3O[C@H](CO)[C@H](O)[C@H](O[C@@H](CC4CCCCC4)C(=O)N4CCC4)[C@H]3NC(C)=O)C2)C[C@@H](O[C@@H]2O[C@H](CO)[C@H](O)[C@H](O[C@@H](CC3CCCCC3)C(=O)N3CCC3)[C@H]2NC(C)=O)[C@@H]1O[C@@H]1O[C@@H](C)[C@@H](O)[C@@H](O)[C@@H]1O [Compound 25] | 3 nM
CC[C@H]1C[C@@H](C(=O)NCCNC(=O)CCOCCOCCOCCOCCOCCOCCOCCOCCOCCOCCOCCOCCOCCOCCOCCOCCOCCOCCOCCOCCOCCOCCOCCOCCOCCC(=O)NCCNC(=O)[C@@H]2C[C@H](CC)[C@@H](O[C@@H]3O[C@@H](C)[C@@H](O)[C@@H](O)[C@@H]3O)[C@H](O[C@@H]3O[C@H](CO)[C@H](O)[C@H](O[C@@H](CC4CCCCC4)C(=O)O)[C@H]3NC(C)=O)C2)C[C@@H](O[C@@H]2O[C@H](CO)[C@H](O)[C@H](O[C@@H](CC3CCCCC3)C(=O)O)[C@H]2NC(C)=O)[C@@H]1O[C@@H]1O[C@@H](C)[C@@H](O)[C@@H](O)[C@@H]1O [Compound 12] | 3.7 nM
CC[C@H]1C[C@@H](C(=O)NCCNC(=O)NCCNC(=O)[C@@H]2C[C@H](CC)[C@@H](O[C@@H]3O[C@@H](C)[C@@H](O)[C@@H](O)[C@@H]3O)[C@H](O[C@@H]3O[C@H](CO)[C@H](O)[C@H](O[C@@H](CC4CCCCC4)C(=O)O)[C@H]3NC(C)=O)C2)C[C@@H](O[C@@H]2O[C@H](CO)[C@H](O)[C@H](O[C@@H](CC3CCCCC3)C(=O)O)[C@H]2NC(C)=O)[C@@H]1O[C@@H]1O[C@@H](C)[C@@H](O)[C@@H](O)[C@@H]1O [Compound 32] | 8.8 nM
CC[C@H]1C[C@@H](C(=O)NCCNC(=O)Cn2cc(C(=O)NCCNC(=O)[C@@H]3C[C@H](CC)[C@@H](O[C@@H]4O[C@@H](C)[C@@H](O)[C@@H](O)[C@@H]4O)[C@H](O[C@@H]4O[C@H](CO)[C@H](O)[C@H](O[C@@H](CC5CCCCC5)C(=O)O)[C@H]4NC(C)=O)C3)nn2)C[C@@H](O[C@@H]2O[C@H](CO)[C@H](O)[C@H](O[C@@H](CC3CCCCC3)C(=O)O)[C@H]2NC(C)=O)[C@@H]1O[C@@H]1O[C@@H](C)[C@@H](O)[C@@H](O)[C@@H]1O [Compound 31] | 3.3 nM
CC[C@H]1C[C@@H](C(=O)NCCNC(=O)CCOCCOCCOCCOCCOCCOCCOCCOCCOCCOCCC(=O)NCCNC(=O)[C@@H]2C[C@H](CC)[C@@H](O[C@@H]3O[C@@H](C)[C@@H](O)[C@@H](O)[C@@H]3O)[C@H](O[C@@H]3O[C@H](CO)[C@H](O)[C@H](O[C@@H](CC4CCCCC4)C(=O)O)[C@H]3NC(C)=O)C2)C[C@@H](O[C@@H]2O[C@H](CO)[C@H](O)[C@H](O[C@@H](CC3CCCCC3)C(=O)O)[C@H]2NC(C)=O)[C@@H]1O[C@@H]1O[C@@H](C)[C@@H](O)[C@@H](O)[C@@H]1O [Compound 15] | 6 nM
CC[C@H]1C[C@@H](C(=O)NCCNC(=O)CCOCCOCCOCCOCCOCCOCCOCCOCCOCCOCCC(=O)NCCNC(=O)[C@@H]2C[C@H](CC)[C@@H](O[C@@H]3O[C@@H](C)[C@@H](O)[C@@H](O)[C@@H]3O)[C@H](O[C@@H]3O[C@H](CO)[C@H](O)[C@H](O[C@@H](CC4CCCCC4)C(=O)N4CCC4)[C@H]3NC(C)=O)C2)C[C@@H](O[C@@H]2O[C@H](CO)[C@H](O)[C@H](O[C@@H](CC3CCCCC3)C(=O)N3CCC3)[C@H]2NC(C)=O)[C@@H]1O[C@@H]1O[C@@H](C)[C@@H](O)[C@@H](O)[C@@H]1O [Compound 20] | 0.8 nM
CC[C@H]1C[C@@H](C(=O)NCCNC(=O)CCOCCOCCOCCOCCOCCOCCC(=O)NCCNC(=O)[C@@H]2C[C@H](CC)[C@@H](O[C@@H]3O[C@@H](C)[C@@H](O)[C@@H](O)[C@@H]3O)[C@H](O[C@@H]3O[C@H](CO)[C@H](O)[C@H](O[C@@H](CC4CCCCC4)C(=O)O)[C@H]3NC(C)=O)C2)C[C@@H](O[C@@H]2O[C@H](CO)[C@H](O)[C@H](O[C@@H](CC3CCCCC3)C(=O)O)[C@H]2NC(C)=O)[C@@H]1O[C@@H]1O[C@@H](C)[C@@H](O)[C@@H](O)[C@@H]1O [Compound 16] | 6 nM
CC[C@H]1C[C@@H](C(=O)NCCNC(=O)c2cn(CCOCCOCCn3cc(C(=O)NCCNC(=O)[C@@H]4C[C@H](CC)[C@@H](O[C@@H]5O[C@@H](C)[C@@H](O)[C@@H](O)[C@@H]5O)[C@H](O[C@@H]5O[C@H](CO)[C@H](O)[C@H](O[C@@H](CC6CCCCC6)C(=O)O)[C@H]5NC(C)=O)C4)nn3)nn2)C[C@@H](O[C@@H]2O[C@H](CO)[C@H](O)[C@H](O[C@@H](CC3CCCCC3)C(=O)O)[C@H]2NC(C)=O)[C@@H]1O[C@@H]1O[C@@H](C)[C@@H](O)[C@@H](O)[C@@H]1O [Compound 28] | 3.2 nM
CCC1CC(C(=O)NCCNC(=O)c2cn(CCOCCC(=O)NCCCC[C@H](NC(=O)CCOCCn3cc(C(=O)NCCNC(=O)C4CC(CC)[C@@H](O[C@@H]5OC(C)[C@@H](O)[C@H](O)C5O)[C@H](O[C@@H]5O[C@@H](CO)[C@H](O)C(O[C@@H](CC6CCCCC6)C(=O)O)C5NC(C)=O)C4)nn3)C(=O)OCc3ccccc3)nn2)C[C@@H](O[C@@H]2O[C@@H](CO)[C@H](O)C(O[C@@H](CC3CCCCC3)C(=O)O)C2NC(C)=O)[C@@H]1O[C@@H]1OC(C)[C@@H](O)[C@H](O)C1O (stereo partly shown) [Compound 37] | 3.9 nM
CC[C@H]1C[C@@H](C(=O)NCCNC(=O)CCOCCOCCOCCOCCC(=O)NCCNC(=O)[C@@H]2C[C@H](CC)[C@@H](O[C@@H]3O[C@@H](C)[C@@H](O)[C@@H](O)[C@@H]3O)[C@H](O[C@@H]3O[C@H](CO)[C@H](O)[C@H](O[C@@H](CC4CCCCC4)C(=O)O)[C@H]3NC(C)=O)C2)C[C@@H](O[C@@H]2O[C@H](CO)[C@H](O)[C@H](O[C@@H](CC3CCCCC3)C(=O)O)[C@H]2NC(C)=O)[C@@H]1O[C@@H]1O[C@@H](C)[C@@H](O)[C@@H](O)[C@@H]1O [Compound 17] | 5.1 nM
CC[C@H]1C[C@@H](C(=O)NCCNC(=O)CCOCCOCCOCCOCCC(=O)NCCNC(=O)[C@@H]2C[C@H](CC)[C@@H](O[C@@H]3O[C@@H](C)[C@@H](O)[C@@H](O)[C@@H]3O)[C@H](O[C@@H]3O[C@H](CO)[C@H](O)[C@H](O[C@@H](CC4CCCCC4)C(=O)N4CCC4)[C@H]3NC(C)=O)C2)C[C@@H](O[C@@H]2O[C@H](CO)[C@H](O)[C@H](O[C@@H](CC3CCCCC3)C(=O)N3CCC3)[C@H]2NC(C)=O)[C@@H]1O[C@@H]1O[C@@H](C)[C@@H](O)[C@@H](O)[C@@H]1O [Compound 23] | 2.8 nM
CCC1CC(C(=O)NCCNC(=O)c2cn(CCOCCC(=O)NCCCC[C@H](NC(=O)CCOCCn3cc(C(=O)NCCNC(=O)C4CC(CC)[C@@H](O[C@@H]5OC(C)[C@@H](O)[C@H](O)C5O)[C@H](O[C@@H]5O[C@@H](CO)[C@H](O)C(O[C@@H](CC6CCCCC6)C(=O)O)C5NC(C)=O)C4)nn3)C(=O)O)nn2)C[C@@H](O[C@@H]2O[C@@H](CO)[C@H](O)C(O[C@@H](CC3CCCCC3)C(=O)O)C2NC(C)=O)[C@@H]1O[C@@H]1OC(C)[C@@H](O)[C@H](O)C1O (stereo partly shown) [Compound 38] | 6.4 nM
CC[C@H]1C[C@@H](C(=O)NCCNC(=O)CCOCCOCCC(=O)NCCNC(=O)[C@@H]2C[C@H](CC)[C@@H](O[C@@H]3O[C@@H](C)[C@@H](O)[C@@H](O)[C@@H]3O)[C@H](O[C@@H]3O[C@H](CO)[C@H](O)[C@H](O[C@@H](CC4CCCCC4)C(=O)O)[C@H]3NC(C)=O)C2)C[C@@H](O[C@@H]2O[C@H](CO)[C@H](O)[C@H](O[C@@H](CC3CCCCC3)C(=O)O)[C@H]2NC(C)=O)[C@@H]1O[C@@H]1O[C@@H](C)[C@@H](O)[C@@H](O)[C@@H]1O [Compound 18] | 3.5 nM
